Source: publication PMC3090406, “Crystal Structures of Two Aminoglycoside Kinases Bound with a Eukaryotic Protein Kinase Inhibitor” (PLoS ONE, 2011)

Target: APH(9)-Ia (Legionella pneumophila, UniProt O06916)
Experiment: biochemical

Sequence of APH(9)-Ia (O06916 1-331): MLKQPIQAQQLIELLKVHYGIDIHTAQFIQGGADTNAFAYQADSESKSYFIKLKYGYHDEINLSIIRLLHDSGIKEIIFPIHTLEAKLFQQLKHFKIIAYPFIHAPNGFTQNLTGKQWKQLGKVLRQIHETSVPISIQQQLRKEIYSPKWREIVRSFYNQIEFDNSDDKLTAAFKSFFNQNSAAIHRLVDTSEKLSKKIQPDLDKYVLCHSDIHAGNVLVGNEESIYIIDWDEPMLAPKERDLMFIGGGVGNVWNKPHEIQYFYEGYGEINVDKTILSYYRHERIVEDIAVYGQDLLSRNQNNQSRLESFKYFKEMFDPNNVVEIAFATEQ

**Q.** Which Ki does the source give for `NCCNS(=O)(=O)c1ccc(Cl)c2ccncc12` [CKI-7, N-(2-aminoethyl)-5-chloro-isoquinoline-8-sulfonamide] here?
**A.** 159 ± 11 µM
